Test results reported in ChEMBL document CHEMBL2074372, “CHO/hPEPT1 cells overexpressing the human peptide transporter (hPEPT1) as an alternative in vitro model for peptidomimetic drugs” (J Pharm Sci, 1999).

Legend:
[1] = molecular target: T1, Solute carrier family 15 member 1 (Homo sapiens, UniProt P46059); experiment: TP_TRANSPORTER: inhibition of Gly-Sar uptake (Gly-Sar: 20 uM) in PEPT1-expressing CHO cells; assay type: functional, cell-based
T1 sequence (P46059 whole entry): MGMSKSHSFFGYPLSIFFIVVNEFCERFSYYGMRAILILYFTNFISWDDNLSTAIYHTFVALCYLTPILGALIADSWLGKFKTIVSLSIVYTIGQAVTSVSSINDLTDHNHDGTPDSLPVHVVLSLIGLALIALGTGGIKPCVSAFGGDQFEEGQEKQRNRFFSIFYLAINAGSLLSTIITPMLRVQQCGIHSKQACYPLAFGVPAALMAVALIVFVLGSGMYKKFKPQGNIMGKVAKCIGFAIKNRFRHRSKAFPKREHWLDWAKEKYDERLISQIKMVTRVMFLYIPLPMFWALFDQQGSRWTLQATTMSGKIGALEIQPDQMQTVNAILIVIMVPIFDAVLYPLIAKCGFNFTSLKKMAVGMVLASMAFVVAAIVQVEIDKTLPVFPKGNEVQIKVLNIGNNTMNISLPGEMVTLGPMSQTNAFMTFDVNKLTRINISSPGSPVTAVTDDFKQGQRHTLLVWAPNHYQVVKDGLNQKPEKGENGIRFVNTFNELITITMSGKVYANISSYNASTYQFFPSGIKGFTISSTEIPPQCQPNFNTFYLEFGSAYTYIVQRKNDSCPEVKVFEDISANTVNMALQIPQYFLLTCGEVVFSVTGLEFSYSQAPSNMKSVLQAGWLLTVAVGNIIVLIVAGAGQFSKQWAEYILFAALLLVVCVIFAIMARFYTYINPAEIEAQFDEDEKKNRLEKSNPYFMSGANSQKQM

[2] = molecular target: T2, Solute carrier family 15 member 1 (Homo sapiens) (UniProt P46059); experiment: TP_TRANSPORTER: uptake in PEPT1-expressing CHO cells; assay type: functional, cell-based
T2 sequence (whole entry): T1 sequence (P46059 whole entry)

SMILES	IC50 [1] [mM]	Activity [2]
N[C@@H](Cc1ccc(O)c(O)c1)C(=O)O [LEVODOPA]	141	
CCOC(=O)[C@H](CCc1ccccc1)N[C@@H](C)C(=O)N1CCC[C@H]1C(=O)O	4.5	
CC1=C(C(=O)O)N2C(=O)[C@@H](NC(=O)[C@H](N)C3=CCC=CC3)[C@H]2SC1 [CEPHRADINE]	15.3	substrate [+]

Continued by falling IC50 [1], values first:

IC50 [1] [mM]	Activity [2]	SMILES
152		C[C@](N)(Cc1ccc(O)c(O)c1)C(=O)O [METHYLDOPA]
8.2	substrate [+]	N[C@@H](C(=O)N[C@@H]1C(=O)N2C(C(=O)O)=C(Cl)CS[C@H]12)c1ccccc1 [CEFACLOR ANHYDROUS]
